Columns and labels:
[1] = biological target: T1, NHE3 (Homo sapiens, UniProt P48764); assay: Cell-based assay of NHE-3 activity (persistent inhibition), human; details: human Persistence, 60 min incubation then washout
T1 construct: expressed in transfected cells
T1 sequence (P48764 26-834): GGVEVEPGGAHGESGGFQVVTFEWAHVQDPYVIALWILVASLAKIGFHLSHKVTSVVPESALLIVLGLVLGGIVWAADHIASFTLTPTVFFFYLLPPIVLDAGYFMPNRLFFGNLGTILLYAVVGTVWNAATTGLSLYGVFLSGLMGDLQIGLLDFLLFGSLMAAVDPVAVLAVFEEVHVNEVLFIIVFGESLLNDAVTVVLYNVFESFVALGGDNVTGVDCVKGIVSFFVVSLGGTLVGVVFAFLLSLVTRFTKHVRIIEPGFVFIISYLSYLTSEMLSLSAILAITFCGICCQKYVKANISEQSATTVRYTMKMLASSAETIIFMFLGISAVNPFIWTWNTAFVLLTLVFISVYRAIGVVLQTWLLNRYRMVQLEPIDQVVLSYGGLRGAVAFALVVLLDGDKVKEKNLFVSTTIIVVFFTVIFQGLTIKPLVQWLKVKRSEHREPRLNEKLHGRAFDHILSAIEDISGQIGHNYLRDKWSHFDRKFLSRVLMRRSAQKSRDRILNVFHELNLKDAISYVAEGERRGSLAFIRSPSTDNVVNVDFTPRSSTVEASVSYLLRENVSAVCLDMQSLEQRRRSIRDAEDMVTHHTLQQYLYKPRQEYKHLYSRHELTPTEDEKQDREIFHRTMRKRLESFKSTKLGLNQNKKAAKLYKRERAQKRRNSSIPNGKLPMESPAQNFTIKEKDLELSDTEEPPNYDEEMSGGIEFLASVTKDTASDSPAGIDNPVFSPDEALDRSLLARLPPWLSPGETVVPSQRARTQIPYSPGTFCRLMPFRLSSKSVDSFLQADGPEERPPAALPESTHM
T1 sequence (Q99653 2-195 partner limits assumed): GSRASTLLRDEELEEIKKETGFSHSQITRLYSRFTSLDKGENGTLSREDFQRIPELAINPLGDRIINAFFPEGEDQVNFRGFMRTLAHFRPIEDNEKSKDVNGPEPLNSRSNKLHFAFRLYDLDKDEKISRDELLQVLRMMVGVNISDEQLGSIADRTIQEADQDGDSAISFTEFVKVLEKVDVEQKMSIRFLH
Procedure, shortened: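 Persistent inhibition: compound (0-30 μM, 60 min, RT, NaCl-HEPES pH 7.4) removed before assay. Human NHE3/NHERF2 PS120 cells were then BCECF-loaded during NH4Cl pulse (30 min, 37 °C), acidified in Na+-free buffer, and Na+ added 10 min after washout; antiport measured as initial fluorescence-ratio change per minute.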

[2] = biological target: T1, NHE3; assay: Cell-based assay of NHE-3 activity (pre-incubation inhibition), human; details: human Preincubation; for IC50 / pIC50: 0-30 μM test compound
Procedure, shortened: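 Activity read as initial rate of BCECF fluorescence ratio change per minute (ex 439/505, em 538 nm) following NH4Cl prepulse acid loading. Compound (0–30 μM) present during 10 min Na+-free acidification at room temperature; cells were PS120 fibroblasts stably co-expressing human NHE3 and NHERF2.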

Row | % inhibition [1] | IC50 [1] | % inhibition [2] | IC50 [2] | pIC50 [1] | pIC50 [2] | SMILES
1 | C (>70%) | < 100 nM | C (>70%) | < 100 nM | – | – | Cc1cc(S(=O)(=O)N2CC[C@H](COCCOCCNC(=O)NCCCCNC(=O)NCCOCCOC[C@H]3CCN(S(=O)(=O)c4ccc(O[C@H]5c6cc(Cl)cc(C#N)c6C[C@@H]5N(C)C)c(C)c4)C3)C2)ccc1O[C@H]1c2cc(Cl)cc(C#N)c2C[C@@H]1N(C)C [Example 46, 3-[2-(2-[[(3S)-1-[(4-[[(1S,2S)-6-Chloro-4-cyano-2-(dimethylamino)-2,3-dihydro-1H-inden-1-yl]oxy]-3-methylbenzene)sulfonyl]pyrrolidin-3-yl]methoxy]ethoxy)ethyl]-1-[4-([[2-(2-[[(3S)-1-[(4-[[(1S,2S)-6-chloro-4-cyano-2-(dimethylamino)-2,3-dihydro-1H-inden-1-yl]oxy]-3-methylbenzene)sulfonyl]pyrrolidin-3-yl]methoxy]ethoxy)ethyl]carbamoyl]amino)butyl]urea; bis(trifluoroacetic acid)]
2 | B (40-70%) | < 100 nM | C (>70%) | < 100 nM | – | – | Cc1cc(S(=O)(=O)N[C@H]2CCN(CCOCCNC(=O)NCCCCNC(=O)NCCOCCN3CC[C@H](NS(=O)(=O)c4ccc(O[C@H]5c6cc(Cl)cc(C#N)c6C[C@@H]5N(C)C)c(C)c4)C3)C2)ccc1O[C@H]1c2cc(Cl)cc(C#N)c2C[C@@H]1N(C)C [Example 54, 3-(2-[2-[(3S)-3-[(4-[[(1S,2S)-6-Chloro-4-cyano-2-(dimethylamino)-2,3-dihydro-1H-inden-1-yl]oxy]-3-methylbenzene)sulfonamido]pyrrolidin-1-yl]ethoxy]ethyl)-1-(4-[[(2-[2-[(3S)-3-[(4-[[(1S,2S)-6-chloro-4-cyano-2-(dimethylamino)-2,3-dihydro-1H-inden-1-yl]oxy]-3-methylbenzene)sulfonamido]pyrrolidin-1-yl]ethoxy]ethyl)carbamoyl]amino]butyl)urea]
3 | C (>70%) | – | C (>70%) | – | C (NHE3 pIC50 > 7) | C (NHE3 pIC50 > 7) | CN(C)[C@H]1Cc2c(Cl)cc(Cl)cc2[C@@H]1Oc1c(F)cc(S(=O)(=O)NCCOCCOCCNC(=O)NCCCCNC(=O)NCCOCCOCCNS(=O)(=O)c2cc(F)c(O[C@H]3c4cc(Cl)cc(Cl)c4C[C@@H]3N(C)C)c(F)c2)cc1F [Example 86]
4 | C (>70%) | – | C (>70%) | – | C (NHE3 pIC50 > 7) | C (NHE3 pIC50 > 7) | Cc1cc(S(=O)(=O)NCCOCCOCCNC(=O)NCCCCNC(=O)NCCOCCOCCNS(=O)(=O)c2cc(C)c(O[C@H]3c4cc(Cl)cc(Cl)c4C[C@@H]3N(C)C)c(F)c2)cc(F)c1O[C@H]1c2cc(Cl)cc(Cl)c2C[C@@H]1N(C)C [Example 84, 1-[2-(2-[2-[(4-[[(1S,2S)-4,6-Dichloro-2-(dimethylamino)-2,3-dihydro-1H-inden-1-yl]oxy]-3-fluoro-5-methylbenzene)sulfonamido]ethoxy]ethoxy)ethyl]-3-[4-([[2-(2-[2-[(4-[[(1S,2S)-4,6-dichloro-2-(dimethylamino)-2,3-dihydro-1H-inden-1-yl]oxy]-3-fluoro-5-methylbenzene)sulfonamido]ethoxy]ethoxy)ethyl]carbamoyl]amino)butyl]urea]

The remaining lines, values behind:

Row | SMILES | % inhibition [1] | IC50 [1] | % inhibition [2] | IC50 [2] | pIC50 [1] | pIC50 [2]
5 | C[C@H](COCCOCCNC(=O)NCCCCNC(=O)NCCOCCOC[C@@H](C)NS(=O)(=O)c1ccc(O[C@H]2c3cc(Cl)cc(Cl)c3C[C@@H]2N2CCC[C@@H](N)C2)cc1)NS(=O)(=O)c1ccc(O[C@H]2c3cc(Cl)cc(Cl)c3C[C@@H]2N2CCC[C@@H](N)C2)cc1 [Example 97, 3-(2-[2-[(2R)-2-[(4-[[(1S,2S)-2-[(3R)-3-Aminopiperidin-1-yl]-4,6-dichloro-2,3-dihydro-1H-inden-1-yl]oxy]benzene)sulfonamido]propoxy]ethoxy]ethyl)-1-(4-[[(2-[2-[(2R)-2-[(4-[[(1S,2S)-2-[(3R)-3-aminopiperidin-1-yl]-4,6-dichloro-2,3-dihydro-1H-inden-1-yl]oxy]benzene)sulfonamido]propoxy]ethoxy]ethyl)carbamoyl]amino]butyl)urea] | C (>70%) | – | C (>70%) | – | C (NHE3 pIC50 > 7) | C (NHE3 pIC50 > 7)
6 | N#Cc1cc(Cl)cc2c1C[C@H](N1C[C@@H]3C[C@H]1CN3)[C@H]2Oc1ccc(S(=O)(=O)N[C@H]2CCN(CCOCCNC(=O)NCCCCNC(=O)NCCOCCN3CC[C@H](NS(=O)(=O)c4ccc(O[C@H]5c6cc(Cl)cc(C#N)c6C[C@@H]5N5C[C@@H]6C[C@H]5CN6)cc4)C3)C2)cc1 [Example 130, 4-([(1S,2S)-2-[(1S,4S)-2,5-Diazabicyclo[2.2.1]heptan-2-yl]-6-chloro-4-cyano-2,3-dihydro-1H-inden-1-yl]oxy)-N—[(S)-1-(20-[(S)-3-[(4-([(1S,2S)-2-[(1S,4S)-2,5-diazabicyclo[2.2.1]heptan-2-yl]-6-chloro-4-cyano-2,3-dihydro-1H-inden-1-yl]oxy)phenyl]sulfonamido)pyrrolidin-1-yl]-7,14-dioxo-3,18-dioxa-6,8,13,15-tetraazaicosyl)pyrrolidin-3-yl]benzenesulfonamide; bis(trifluoroacetic acid)] | C (>70%) | 100 to 1000 nM | B (40-70%) | – | – | C (NHE3 pIC50 > 7)
7 | N#Cc1cc(Cl)cc2c1C[C@H](N1CCCNCC1)[C@H]2Oc1ccc(S(=O)(=O)N[C@@H]2CCN(CCOCCNC(=O)NCCCCNC(=O)NCCOCCN3CC[C@@H](NS(=O)(=O)c4ccc(O[C@H]5c6cc(Cl)cc(C#N)c6C[C@@H]5N5CCCNCC5)cc4)C3)C2)cc1 [Example 127, 4-([(1S,2S)-6-Chloro-4-cyano-2-(1,4-diazepan-1-yl)-2,3-dihydro-1H-inden-1-yl]oxy)-N—[(R)-1-(20-[(R)-3-([4-([(1S,2S)-6-chloro-4-cyano-2-(1,4-diazepan-1-yl)-2,3-dihydro-1H-inden-1-yl]oxy)phenyl]sulfonamido)pyrrolidin-1-yl]-7,14-dioxo-3,18-dioxa-6,8,13,15-tetraazaicosyl)pyrrolidin-3-yl]benzenesulfonamide; bis(trifluoroacetic acid)] | A (NHE3 < 40%) | < 100 nM | C (>70%) | < 100 nM | – | –
8 | N#Cc1cc(Cl)cc2c1C[C@H](N1CCNCC1)[C@H]2Oc1ccc(S(=O)(=O)N[C@@H]2CCN(CCOCCNC(=O)NCCCCNC(=O)NCCOCCN3CC[C@@H](NS(=O)(=O)c4ccc(O[C@H]5c6cc(Cl)cc(C#N)c6C[C@@H]5N5CCNCC5)cc4)C3)C2)cc1 [Example 108, 4-([(1S,2S)-6-Chloro-4-cyano-2-(piperazin-1-yl)-2,3-dihydro-1H-inden-1-yl]oxy)-N—[(R)-1-(20-[(R)-3-([4-([(1S2S)-6-chloro-4-cyano-2-(piperazin-1-yl)-2,3-dihydro-1H-inden-1-yl]oxy)phenyl]sulfonamido)pyrrolidin-1-yl]-7,14-dioxo-3,18-dioxa-6,8,13,15-tetraazaicosyl)pyrrolidin-3-yl]benzenesulfonamide; tetra(trifluoroacetate)] | C (>70%) | – | C (>70%) | – | C (NHE3 pIC50 > 7) | C (NHE3 pIC50 > 7)

From US11242337B2, “Compounds useful for treating gastrointestinal tract disorders” (Ardelyx, Inc., priority 2017, dated 2022)
